# Reference: patent US4329426A, “Process for preparation of antibiotics and biologically pure culture for use therein” (Kowa Company, Ltd., priority 1978, dated 1982)
# Assays:
# [1] = Acute toxicity in mice; format: in vivo; settings: mouse, in vivo
# [2] = Solubility; format: physicochemical
# [3] = system: mice; test: Acute toxicity in mice; format: in vivo
Compound,LD50 ([1]; iv.),LD50 ([1]; sc.),Solubility in acetone [2],"Solubility in chloroform, ethyl acetate, diethyl ether, hexane and petroleum ether [2]",Solubility in ethanol [2],Solubility in methanol [2],Solubility in water [2],LD50 ([3]; iv.),LD50 ([3]; sc.)
CNCC1CCC(N)C(OC2C(N)CC(OC)C(NC)C2O)O1 (stereo not drawn) [KA-7038 III],> 300 mg/kg,> 600 mg/kg,slightly soluble,Insoluble,little soluble,Easily soluble,Very readily soluble,,
CNC1C(O)CC(N)C(OC2OC(CN)CCC2N)C1O (stereo not drawn) [KA-7038 II],> 300 mg/kg,> 600 mg/kg,slightly soluble,Insoluble,little soluble,Easily soluble,Very readily soluble,,
CNC1C(O)C(OC2OC(CN)CCC2N)C(N)C(O)C1OC (stereo not drawn) [KA-7038 IV],> 300 mg/kg,> 600 mg/kg,slightly soluble,Insoluble,little soluble,Easily soluble,Very readily soluble,,
CNCC1CCC(N)C(OC2C(N)CC(OC)C(N(C)C(=O)CN)C2O)O1 (stereo not drawn) [KA-7038 I],> 100 mg/kg,> 400 mg/kg,sightly soluble,Insoluble,little soluble,Easily soluble,Very readily soluble,,
CNCC1CCC(N)C(OC2C(N)CC(OC)C(NC)C2O)O1 (stereo not drawn) [KA-7038 VI],,,slightly soluble,Insoluble,little soluble,Easily soluble,Very readily soluble,> 300 mg/kg,> 600 mg/kg
CNC1C(OC)CC(N)C(OC2OC(CN)CCC2N)C1O (stereo not drawn) [KA-7038 V],> 300 mg/kg,> 600 mg/kg,slightly soluble,Insoluble,little soluble,Easily soluble,Very readily soluble,,
